Experimental data: US5434136A, “Treatment of motility disorders with a GNRH analog” (priority 1992, dated 1995)

How the values were obtained:
[1] = system: migrating motor complexes, jejunum; test: Leuprolide acetate in ovariectomized female rats: migrating motor complexes; type: in vivo, ovariectomized female Wistar rats; settings: for Migrating Motor Complexes, L-Fasted / Migrating Motor Complexes, L-Fed: ovariectomized
Procedure: Eleven female Wistar rats weighing between 175 and 250 g were each implanted with four bipolar Ag/AgCL electrodes (the preparation of which is described in: Mathias, Am. J. Physiology, 249:[…]-[…], 1981). The electrodes were sewn 5 cm from the Ligament of Trietz and 5 cm apart, onto the jejunal serosa. The number of migrating myoelectric complexes was recorded using a R-612 Dynograph (Sensor-Medics, Anaheim, Calif.). Rats were fasted for 36 hours prior to recording and feeding (no food, liberal water), and were housed in special cages to remove feces. After 36 hours of fasting, Migrating Motor Complexes (MMC) were recorded at a sensitivity of 0.2 mV/cm, 2.5 mm/sec paper speed, and a Time Constant of 1 for a duration of 2 to 4 hours. Immediately following the fasted recording session, the rats were fed 2 biscuits of Purina rat chow with simultaneous recording during feeding and continued for 4 hours. Female Wistar rats were ovariectomized and permitted to recover ten days. Bipolar Ag/AgCl electrodes were then implanted as described for example 4. Control MMC readings in the fasted and fed states were recorded prior to treatment with leuprolide acetate (Controls) as described in Example 4. Treatment with leuprolide acetate followed using doses in the range of 2 to 250 μg/100 g body weight. Fasted and fed recordings were obtained as described for Example 4.

irritable bowel syndrome = settings: patient
Procedure: The patient, a patient suffering from irritable bowel syndrome presented symptoms of nausea, vomiting, abdominal pain, and altered bowel habits. This patient was treated with lupron, 2.0 mg/day by subcutaneous injection, for a period of six months. […] Nafarelin is a GnRH analog available from SYNTEX, which differs from the natural GnRH peptide in a D-Nal (2)^6 substitution. […] Nafarelin therapy was discontinued, and treatment with Danazol, a 17-ethyltestosterone derivative known to antagonize GnRH receptors at the level of the pituitary, was begun, at 200 mg four times daily, P.O., for a period of three months.

[2] = system: functional bowel disease (GMD, IIHVN, Roux-en-Y Syndrome); test: Treatment of five patients with leuprolide acetate: symptoms; type: in vivo, human
Excerpt: Patients: Four of the five patients tested were women with functional bowel disease: two with gastrointestinal motor dysfunction (GMD), and two with idiopathic intestinal hollow visceral myopathy/neuropathy (IIHVN). The fifth patient had Roux-en-Y Syndrome. All patients had severe, incapacitating symptoms of abdominal pain, nausea, and intermittent vomiting. All had made frequent visits to emergency rooms, had seen many physicians, and undergone multiple tests and surgical procedures, and were unable to maintain their jobs or quality of life. They had been treated with many different drugs, including experimental drugs by protocol. They had difficulty in maintaining body weight, because their symptoms were worsened by eating. The symptoms of the two patients with GMD were abdominal pain located in the right upper quadrant and epigastrium, daily nausea, and intermittent vomiting exacerbated by eating and by the luteal phase of the menstrual cycle. The two patients with IIHVN had abdominal pain, nausea, and intermittent vomiting, and also had urinary tract involvement consisting of pain and a decrease in urination. The fifth patient had Roux-en-Y syndrome (defined as epigastric-to-right-upper-quadrant pain, nausea, and vomiting increased by eating) after surgical construction of a gastro-jejunal Roux-en-Y anastomosis. The mean duration of these symptoms was eight years (Table 1). All subjects had undergone extensive blood testing, several upper gastrointestinal x-ray series, barium enemas, esophagogastroduodenoscopy, endoscopic retrograde cholangiopancreatography, gastric emptying tests with radiolabeled meal, ultrasound of the abdomen, computerized axial tomography of the abdomen, and many other tests. The results of all tests were normal, except for prolonged gastric emptying in the patient with the Roux-en-Y Syndrome. Because of their intractable clinical problem, these patients were included in the test protocol with leuprolide acetate. Protocol: The symptoms of each patient were first assessed, and their tests evaluated. Each patient kept a daily symptom diary. Leuprolide acetate was obtained by prescription as Lupron (TAP pharmaceuticals, Abbott Labs, North Chicago, Ill.). One multi-use vial of Lupron comprised of […] Leuprolide Acetate. A daily dose of 0.5 mg ([…]) was self-administered by subcutaneous injection, for a period of three months. Each patient was examined at 0, 1 and 3 months of treatment. After the third month, leuprolide was continued as previously, and estrogen (0.625 mg orally) and calcium (1000 mg orally) were also administered. At the end of the sixth month, a two week withdrawal period from leuprolide acetate ensued. During this period a 10 mg oral dose of progesterone was given to pre-menopausal patients, to assess recurrence of symptoms and to induce menses. Post-menopausal women were not treated with progesterone during the two week withdrawal period. This procedure was then continued for an additional six months, with drug withdrawal and progesterone given every three months to induce a menstrual cycle. Serum estradiol, progesterone, FSH, and LH were quantitated by radioimmunoassay prior to the initiation of leuprolide treatment, and at three months post treatment initiation.

[3] = Patient 4 (IIHVN), 0.5 mg daily s.c.
[4] = Patient 5 (Roux-en-Y), 0.5 mg daily s.c.

## CCNC(=O)[C@@H]1CCCN1C(=O)[C@H](CCCNC(=N)N)NC(=O)[C@H](CC(C)C)NC(=O)[C@@H](CC(C)C)NC(=O)[C@H](Cc1ccc(O)cc1)NC(=O)[C@H](CO)NC(=O)[C@H](Cc1c[nH]c2ccccc12)NC(=O)[C@H](Cc1c[nH]cn1)NC(=O)[C@@H]1CCC(=O)N1 [Leuprolide acetate, leuprolide acetate]
[1]; ovariectomized female rats
  Dose required to overcome the reduction of MMC/hour in fed rats: 100 ug/100 g body weight
[1]; 2 μg/100 g body weight, control 3.86 + 0.14, mean + SEM
  Migrating Motor Complexes, L-Fasted: 4.40 + 0.16 MMC/hour
[1]; 2 μg/100 g body weight, control 0
  Migrating Motor Complexes, L-Fed: 0 MMC/hour
[1]; 20 μg/100 g body weight, control 5.17 + 0.31, mean + SEM
  Migrating Motor Complexes, L-Fasted: 5.40 + 0.15 MMC/hour
[1]; 20 μg/100 g body weight, control 0
  Migrating Motor Complexes, L-Fed: 0 MMC/hour
[1]; 40 μg/100 g body weight, control 4.50 + 0.22, mean + SEM
  Migrating Motor Complexes, L-Fasted: 5.23 + 0.41 MMC/hour
[1]; 40 μg/100 g body weight, control 0.88 + 0.58
  Migrating Motor Complexes, L-Fed: 0 MMC/hour
[1]; 100 μg/100 g body weight, control 4.00 + 0.17, mean + SEM
  Migrating Motor Complexes, L-Fasted: 5.00 + 0.41 MMC/hour
[1]; 100 μg/100 g body weight, control 0, mean + SEM
  Migrating Motor Complexes, L-Fed: 4.50 + 0.34 MMC/hour
[1]; 250 μg/100 g body weight, control 4.50 + 0.22, mean + SEM
  Migrating Motor Complexes, L-Fasted: 4.50 + 0.29 MMC/hour
[1]; 250 μg/100 g body weight, control 0.88 + 0.58, mean + SEM
  Migrating Motor Complexes, L-Fed: 5.00 + 0.58 MMC/hour
Irritable bowel syndrome; 2.0 mg/day s.c., six months (entry one)
  Blood levels of FSH and LH: effectively reduced their blood levels of FSH and LH
Irritable bowel syndrome; 2.0 mg/day s.c., six months (entry two)
  Symptoms of irritable bowel disease: effectively reduced the symptoms of their irritable bowel disease
Irritable bowel syndrome; depot of 7.5 mg I.M. monthly with 100 mg testosterone depot I.M. monthly, after six months
  Irritable bowel symptoms: controlled without side effects
[2]; Patient 1, 0.5 mg daily s.c.
  Constipation: after leuprolide acetate: Daily formed stools
  Intermittent vomiting: after leuprolide acetate: Abolished
  Nausea, daily: after leuprolide acetate: Decreased considerably
  Pain, RUQ, epigastrium, BLQ: after leuprolide acetate: Abolished
[2]; Patient 2, 0.5 mg daily s.c.
  Constipation, intermittent: after leuprolide acetate: Daily formed stools
  Epigastric to RUQ pain: after leuprolide acetate: Abolished
  Nausea, daily: after leuprolide acetate: Abolished
[2]; Patient 3 (IIHVN)
  Bilateral lower quadrant pain: after leuprolide acetate: Abolished
  Bowel and bladder function after therapy: normal bowel and bladder function
  Epigastric to RUQ pain: after leuprolide acetate: Decreased considerably
  Nausea and vomiting after therapy: subsided
  Nausea, daily: after leuprolide acetate: Abolished
  Obstipation: after leuprolide acetate: Daily formed stools
  Pain on urination: after leuprolide acetate: Abolished
  Remaining abdominal pain under therapy: mild and intermittent abdominal pain
[2]; Patient 3 (IIHVN), total abdominal hysterectomy and bilateral salpingo-oophorectomy
  Overall response: responded dramatically
[2]; Patient 4 (IIHVN)
  Overall outcome: symptom-free
[2]; [3]
  Constipation after ovulation: after leuprolide acetate: Daily formed stools
  Deep boring pain in lower abdomen and rectum: after leuprolide acetate: Abolished
  Urinary difficulty after ovulation: after leuprolide acetate: normal urination
  Urination frequency after leuprolide acetate: 4 to 6 day⁻¹
[2]; Patient 5 (Roux-en-Y)
  Overall outcome: symptom-free
[2]; [4]
  Diarrhea: after leuprolide acetate: Daily formed stools
  Epigastric to RUQ pain: after leuprolide acetate: Abolished
  Intermittent vomiting: after leuprolide acetate: Abolished
  Nausea, daily: after leuprolide acetate: Abolished
  Worsened by eating: after leuprolide acetate: Abolished
[2]; Patient 5 (Roux-en-Y), from 96 to 131 pounds
  Body weight gained: 35 pounds
[2]; all subjects of Example 1, two week withdrawal
  Symptoms after leuprolide treatment was stopped and a progesterone challenge given: recurrent symptoms within three to five days
[2]; human, in vivo
  Debilitating symptoms of patients with Motility Disorders (conclusion of Example 1): successfully reduces or abolishes
[2]; patients with GMD (Patients 1 and 2)
  Overall outcome after treatment: symptom-free
